Paper PMC5533769, “A cell-based high-throughput screening assay system for inhibitor compounds of antigen presentation by HLA class II molecule” (Scientific Reports, 2017)

Columns and labels:
[1] = molecular target: HLA-DR15 (DRA*01:01/DRB1*15:01) (Homo sapiens, UniProt P01903+P01911); test: FACS binding of biotinylated peptide to HLA-DR15 on HEK293T cells; details: SA-PE, HEK293T transiently expressing DRA*01:01 + DRB1*15:01, biotinylated peptide 30 µM, 5 h (>5 h), 3 to 6 independent experiments
[2] = molecular target: T1, HLA-DR1 (DRA*01:01/DRB1*01:01) (Homo sapiens, UniProt P01903+P01911, A100R/D57E/F55L/F60I/F76Y/I96L/L162R/M171V/P40L/Q125E/R42F/V115G/Y59C); test: FACS binding of biotinylated peptide to HLA-DR1 on HEK293T cells; details: SA-PE, biotinylated peptide 30 µM, >5 h, 3 to 6 independent experiments
[3] = test system: HLA-DR (DRB1*01:01, DRB1*04:05, DRB1*09:01, DRB1*15:01); test: FACS binding of biotinylated peptide to panel of HLA-DR on HEK293T cells; set-up: species or system human
[4] = molecular target: T1, HLA-DR1 (DRA*01:01/DRB1*01:01); test: FACS binding of biotinylated peptide to HLA-DR1 on stable 3T3 cells; details: SA-PE, stable 3T3, DRA*01:01 + DRB1*01:01, biotinylated peptide 30 µM overnight
[5] = test system: HLA-DR (DRB1*01:01, DRB1*04:05, DRB1*09:01, DRB1*15:01); test: FACS binding of biotinylated peptide to panel of HLA-DR on stable 3T3 cells; set-up: species or system human; details: SA-PE, […], biotinylated peptide 30 µM overnight
[6] = test system: DR1 (DRB1*01:01) and DR4 (DRB1*04:01); details: HLA-DRB1*01:01 and DRB1*04:01; ref [4], [5]; cited from earlier work
From the text: An array of autoimmune diseases, including rheumatoid arthritis (RA) and multiple sclerosis (MS), are associated with particular alleles of HLA-DRB1[1], [3]. […] On ...

DR15 (DRB1*15:01) = molecular target: T2, DR15 (DRB1*15:01) (Homo sapiens, UniProt P01903+P01911, OTHER:DRA*01:01ANDEACHDRB1VECTORSWEREINTRODUCEDINTOTHECELLSAT1:1RATIO/OTHER:MBP83-99TODR15(DRB1*15:01)); test: 96-well competition assay: inhibition of MBP83-99 loading to DR15-expressing 3T3 cells; format: binding
T2 construct: The open reading frame for DRA or DRB1 were flanked with Xho 1 and EcoR1 sites; expressed in transfected cells

DR1 (DRB1*01:01) = molecular target: T3, DR1 (DRB1*01:01) (Homo sapiens, UniProt P01903+P01911, A100R/D57E/F55L/F60I/F76Y/I96L/L162R/M171V/P40L/Q125E/R42F/V115G/Y59C); test: 96-well competition assay: inhibition of MBP83-99 loading to DR1-expressing 3T3 cells; format: binding
T3 construct: The open reading frame for DRA or DRB1 were flanked with Xho 1 and EcoR1 sites; expressed in transfected cells

[7] = test system: DR15-expressing 3T3 cells; details: crystal violet (A550); 1 h with CLIP, then MBP83-99 6 h

Compound	Peptide binding (MFI), HLA-DR15 [1]	Peptide binding (MFI), HLA-DR1 [2]	Binding MFI compared with MBP83-99 [3]	Peptide binding, DR1 on 3T3 [4]	Peptide binding across HLA-DR genotypes on 3T3 [5]	Presentation by DR1 and DR4 [6]	IC50 (DR15 (DRB1*15:01)) [µM]	Kd (DR15 (DRB1*15:01)) [µM]	IC50 (DR1 (DRB1*01:01)) [µM]	Kd (DR1 (DRB1*01:01)) [µM]	Cell number after binding assay (cytotoxicity), DR15 cells [7]	Cell number after binding assay (cytotoxicity), DR1 cells (DR1-expressing 3T3 cells)
GIAGFKGEQGPKGEP [CII263-272, type II collagen (CII) 263–272, biotinylated type II collagen peptide]	Significant binding	Significant binding	far less than that for MBP83-99 binding	very weakly	not at all to other DR-expressing cells	present peptide from type II collagen						
CSCC[C@H](NC(=O)[C@H](CCCNC(=N)N)NC(=O)[C@H](CCSC)NC(=O)[C@H](CCCCN)NC(=O)[C@H](CO)NC(=O)[C@@H](NC(=O)[C@@H]1CCCN1C(=O)[C@@H](N)CCCCN)C(C)C)C(=O)N[C@@H](C)C(=O)N[C@H](C(=O)N1CCC[C@H]1C(=O)N[C@@H](CC(C)C)C(=O)N[C@@H](CC(C)C)C(=O)N[C@@H](CCSC)C(=O)N[C@@H](CCC(N)=O)C(=O)N[C@@H](C)C(=O)N[C@@H](CC(C)C)C(=O)O)[C@@H](C)O [CLIP102-118, Class II-associated invariant chain peptide (CLIP) 102–118]							9	3	8	5	no difference in the cell number	no difference in the cell number
